Data reported in ChEMBL document CHEMBL1201862, “PubChem BioAssay data set” (2004).
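Step 1: Grow cells in 96-well plates. Step 2: Expose to compound for 48 hours at 5 concentrations. Step 3: Interpolate endpoints linearly; if unreached, use highest concentration. At the GI50, growth is halved.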 Active and inactive are the calls of the source. Rule as the data show it: active = GI50 up to about 1.1 µM and inactive = higher.

How the values were obtained:
Assay in all cases: DTP human tumour cell line panel, 48 h
MOLT-4 = test system: MOLT-4
HT-29 = test system: HT-29
OVCAR-8 = test system: OVCAR-8
SF-268 = test system: SF-268
M14 = test system: M14
HOP-62 = test system: HOP-62
HCT-15 = test system: HCT-15
SK-MEL-5 = test system: SK-MEL-5
A549 = test system: A549
IGROV-1 = test system: IGROV-1
SW-620 = test system: SW-620
Malme-3M = test system: Malme-3M
SN12C = test system: SN12C
COLO 205 = test system: COLO 205
HL-60 = test system: HL-60
HCC 2998 = test system: HCC 2998
CCRF-CEM = test system: CCRF-CEM
LOX IMVI = test system: LOX IMVI
SF-295 = test system: SF-295
MCF7 = test system: MCF7
CAKI-1 = test system: CAKI-1
RXF 393 = test system: RXF 393
EKVX = test system: EKVX
SK-MEL-28 = test system: SK-MEL-28
TK-10 = test system: TK-10
T47D = test system: T47D
RPMI-8226 = test system: RPMI-8226
786-0 = test system: 786-0
KM12 = test system: KM12
UACC-257 = test system: UACC-257
K562 = test system: K562
PC-3 = test system: PC-3
UACC-62 = test system: UACC-62
MDA-MB-231 = test system: MDA-MB-231
SNB-75 = test system: SNB-75
NCI-H23 = test system: NCI-H23
MDA-N = test system: MDA-N
SK-OV-3 = test system: SK-OV-3
DU-145 = test system: DU-145
SR = test system: SR
HOP-92 = test system: HOP-92
NCI-H460 = test system: NCI-H460
NCI-H226 = test system: NCI-H226
SNB-19 = test system: SNB-19
OVCAR-3 = test system: OVCAR-3
BT-549 = test system: BT-549
NCI-H522 = test system: NCI-H522
UO-31 = test system: UO-31
A498 = test system: A498
ACHN = test system: ACHN
Hs-578T = test system: Hs-578T
NCI/ADR-RES = test system: NCI/ADR-RES
MDA-MB-435 = test system: MDA-MB-435
OVCAR-5 = test system: OVCAR-5
OVCAR-4 = test system: OVCAR-4
HCT-116 = test system: HCT-116
SF-539 = test system: SF-539
U-251 = test system: U-251
SK-MEL-2 = test system: SK-MEL-2

Cc1c(CCN=P(c2ccccc2)(c2ccccc2)c2ccccc2)c(=O)n2c([nH]c3ccccc32)c1C#N
GI50 (MOLT-4): 6.19 µM (inactive) | GI50 (HT-29): > 10 µM (inactive) | GI50 (OVCAR-8): > 10 µM (inactive) | GI50 (SF-268): > 10 µM (inactive) | GI50 (M14): > 10 µM (inactive) | GI50 (HOP-62): > 10 µM (inactive) | GI50 (HCT-15): > 10 µM | GI50 (SK-MEL-5): > 10 µM (inactive) | GI50 (A549): > 10 µM (inactive) | GI50 (IGROV-1): > 10 µM (inactive) | GI50 (SW-620): > 10 µM (inactive) | GI50 (Malme-3M): > 10 µM (inactive) | GI50 (SN12C): > 10 µM (inactive) | GI50 (COLO 205): > 10 µM (inactive) | GI50 (HL-60): 7.21 µM (inactive) | GI50 (HCC 2998): > 10 µM (inactive) | GI50 (CCRF-CEM): 6.93 µM (inactive) | GI50 (LOX IMVI): > 10 µM (inactive) | GI50 (SF-295): > 10 µM (inactive) | GI50 (MCF7): > 10 µM (inactive) | GI50 (CAKI-1): > 10 µM (inactive) | GI50 (RXF 393): > 10 µM (inactive) | GI50 (EKVX): > 10 µM (inactive) | GI50 (SK-MEL-28): > 10 µM (inactive) | GI50 (TK-10): > 10 µM (inactive) | GI50 (T47D): > 10 µM (inactive) | GI50 (RPMI-8226): > 10 µM (inactive) | GI50 (786-0): > 10 µM (inactive) | GI50 (KM12): > 10 µM (inactive) | GI50 (UACC-257): > 10 µM (inactive) | GI50 (K562): 8.36 µM (inactive) | GI50 (PC-3): > 10 µM (inactive) | GI50 (UACC-62): > 10 µM (inactive) | GI50 (MDA-MB-231): > 10 µM (inactive) | GI50 (SNB-75): > 10 µM (inactive) | GI50 (NCI-H23): > 10 µM (inactive) | GI50 (MDA-N): > 10 µM (inactive) | GI50 (SK-OV-3): > 10 µM (inactive) | GI50 (DU-145): > 10 µM (inactive) | GI50 (SR): 8.75 µM (inactive)

Oc1c(-c2ccccc2)sc2ccccc12
GI50 (MOLT-4): 24.7 µM (inactive) | GI50 (HT-29): 31.3 µM (inactive) | GI50 (HOP-92): 21.9 µM (inactive) | GI50 (OVCAR-8): 31.6 µM (inactive) | GI50 (SF-268): 60.7 µM (inactive) | GI50 (NCI-H460): 19.1 µM (inactive) | GI50 (M14): 20.2 µM (inactive) | GI50 (HOP-62): 16.7 µM (inactive) | GI50 (HCT-15): 31.9 µM | GI50 (NCI-H226): 16.4 µM (inactive) | GI50 (SK-MEL-5): 16.7 µM (inactive) | GI50 (A549): 31.9 µM (inactive) | GI50 (IGROV-1): 27.5 µM (inactive) | GI50 (SW-620): 48.3 µM (inactive) | GI50 (SNB-19): 34.3 µM (inactive) | GI50 (Malme-3M): 22.1 µM (inactive) | GI50 (OVCAR-3): 10.2 µM (inactive) | GI50 (COLO 205): 13 µM (inactive) | GI50 (HL-60): 22.6 µM (inactive) | GI50 (HCC 2998): 17.1 µM (inactive) | GI50 (BT-549): 28.1 µM (inactive) | GI50 (CCRF-CEM): 29.8 µM (inactive) | GI50 (NCI-H522): 27.9 µM (inactive) | GI50 (LOX IMVI): 15.5 µM (inactive) | GI50 (SF-295): 19.5 µM (inactive) | GI50 (MCF7): 33.3 µM (inactive) | GI50 (CAKI-1): 0.836 µM (active) | GI50 (UO-31): 24.9 µM (inactive) | GI50 (RXF 393): 14.7 µM (inactive) | GI50 (A498): 31.4 µM (inactive) | GI50 (EKVX): 24.9 µM (inactive) | GI50 (ACHN): 24.7 µM (inactive) | GI50 (SK-MEL-28): 68.9 µM (inactive) | GI50 (TK-10): 72.6 µM (inactive) | GI50 (T47D): 11 µM (inactive) | GI50 (RPMI-8226): 8.63 µM (inactive) | GI50 (786-0): 22.4 µM (inactive) | GI50 (KM12): 25.8 µM (inactive) | GI50 (UACC-257): 25.2 µM (inactive) | GI50 (K562): 13.7 µM (inactive) | GI50 (PC-3): 18.7 µM (inactive) | GI50 (UACC-62): 49.3 µM (inactive) | GI50 (MDA-MB-231): 7.55 µM (inactive) | GI50 (SNB-75): 12.4 µM (inactive) | GI50 (NCI-H23): 20.4 µM (inactive) | GI50 (Hs-578T): 43.9 µM (inactive) | GI50 (NCI/ADR-RES): 34 µM (inactive) | GI50 (MDA-MB-435): 31.6 µM (inactive) | GI50 (OVCAR-5): 27 µM (inactive) | GI50 (OVCAR-4): 37.9 µM (inactive) | GI50 (HCT-116): 18.7 µM (inactive) | GI50 (SF-539): 44.5 µM (inactive) | GI50 (DU-145): 18.8 µM (inactive) | GI50 (U-251): 29.4 µM (inactive) | GI50 (SR): 7.5 µM (inactive) | GI50 (SK-MEL-2): 10.8 µM (inactive)

NNC(=O)c1cccc2c1Oc1ccccc1S2
GI50 (MOLT-4): 55 µM (inactive) | GI50 (HT-29): > 100 µM (inactive) | GI50 (HOP-92): > 100 µM (inactive) | GI50 (OVCAR-8): 98.6 µM (inactive) | GI50 (SF-268): 76.2 µM (inactive) | GI50 (NCI-H460): > 100 µM (inactive) | GI50 (M14): > 100 µM (inactive) | GI50 (HOP-62): 95.9 µM (inactive) | GI50 (HCT-15): > 100 µM | GI50 (NCI-H226): 1.23 µM (inactive) | GI50 (SK-MEL-5): > 100 µM (inactive) | GI50 (IGROV-1): > 100 µM (inactive) | GI50 (SW-620): > 100 µM (inactive) | GI50 (SNB-19): > 100 µM (inactive) | GI50 (COLO 205): > 100 µM (inactive) | GI50 (HL-60): 79.6 µM (inactive) | GI50 (HCC 2998): > 100 µM (inactive) | GI50 (BT-549): 97.3 µM (inactive) | GI50 (CCRF-CEM): 63.1 µM (inactive) | GI50 (LOX IMVI): 88.3 µM (inactive) | GI50 (SF-295): 77.3 µM (inactive) | GI50 (MCF7): > 100 µM (inactive) | GI50 (CAKI-1): > 100 µM (inactive) | GI50 (UO-31): > 100 µM (inactive) | GI50 (RXF 393): 59.3 µM (inactive) | GI50 (A498): 18.2 µM (inactive) | GI50 (EKVX): 23.8 µM (inactive) | GI50 (ACHN): > 100 µM (inactive) | GI50 (SK-MEL-28): > 100 µM (inactive) | GI50 (TK-10): > 100 µM (inactive) | GI50 (T47D): 95.1 µM (inactive) | GI50 (RPMI-8226): > 100 µM (inactive) | GI50 (786-0): > 100 µM (inactive) | GI50 (KM12): > 100 µM (inactive) | GI50 (UACC-257): > 100 µM (inactive) | GI50 (K562): > 100 µM (inactive) | GI50 (PC-3): > 100 µM (inactive) | GI50 (UACC-62): > 100 µM (inactive) | GI50 (MDA-MB-231): > 100 µM (inactive) | GI50 (SNB-75): 50.6 µM (inactive) | GI50 (NCI-H23): > 100 µM (inactive) | GI50 (Hs-578T): 31.6 µM (inactive) | GI50 (NCI/ADR-RES): 83.9 µM (inactive) | GI50 (MDA-MB-435): > 100 µM (inactive) | GI50 (OVCAR-4): > 100 µM (inactive) | GI50 (HCT-116): > 100 µM (inactive) | GI50 (SF-539): > 100 µM (inactive) | GI50 (SK-OV-3): 65.2 µM (inactive) | GI50 (DU-145): 69 µM (inactive) | GI50 (U-251): > 100 µM (inactive) | GI50 (SR): > 100 µM (inactive) | GI50 (SK-MEL-2): > 100 µM (inactive)
